Laboratory results from the supplement of paper PMC4862054.

What was measured:
CAL-51 [1] = assay: normalised viability (% of control), CellTiter-Blue; higher = more viable cells (about 100 = DMSO control); conditions: incubation time: 72 h
Method in brief: (§1)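 Vehicle (100) and a positive kill control (0) anchored the normalisation of each plate, and Z'-factor was used for quality control. Breast cancer cell lines in 20 µl suspension were incubated 72 h over compound in 5 µl medium in 384-well plates, followed by CellTiter-Blue at 560/590 nm. The value is normalised viability at a single listed concentration of the series.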

MDA-MB-231 [2] = assay: as above; conditions: incubation time: 72 h
Method in brief: as §1

CAL-120 [3] = assay: as above; conditions: incubation time: 72 h
Method in brief: as §1

HDQ-P1 [4] = assay: as above; conditions: incubation time: 72 h
Method in brief: as §1

HCC1937 = assay: as above; conditions: incubation time: 72 h
Method in brief: as §1

CAL-148 = assay: as above; conditions: incubation time: 72 h
Method in brief: as §1

MFM-223 [5] = assay: as above; conditions: incubation time: 72 h
Method in brief: as §1

HCC1599 = assay: as above; conditions: incubation time: 72 h
Method in brief: as §1

HCC1143 [6] = assay: as above; conditions: incubation time: 72 h
Method in brief: as §1

BT-549 = assay: as above; conditions: incubation time: 72 h
Method in brief: as §1

BT-474 = assay: as above; conditions: incubation time: 72 h
Method in brief: as §1

CAL-85-1 = assay: as above; conditions: incubation time: 72 h
Method in brief: as §1

MDA-MB-468 = assay: as above; conditions: incubation time: 72 h
Method in brief: as §1

DU-4475 [7] = assay: as above; conditions: incubation time: 72 h
Method in brief: as §1

MDA-MB-436 = assay: as above; conditions: incubation time: 72 h
Method in brief: as §1

MDA-MB-453 = assay: as above; conditions: incubation time: 72 h
Method in brief: as §1

SK-BR-3 [8] = assay: as above; conditions: incubation time: 72 h
Method in brief: as §1

CAL-51 [9] = assay: normalised viability (% of control), CellTiter-Blue; higher = more viable cells (100 = DMSO, 0 = benzethonium chloride kill control); conditions: 1 nM; incubation time: 72 h
Method in brief: as §1

MDA-MB-231 [10] = assay: as above; conditions: 1 nM; incubation time: 72 h
Method in brief: as §1

CAL-120 [11] = assay: as above; conditions: 1 nM; incubation time: 72 h
Method in brief: as §1

HDQ-P1 [12] = assay: as above; conditions: 1 nM; incubation time: 72 h
Method in brief: as §1

MFM-223 [13] = assay: as above; conditions: 1 nM; incubation time: 72 h
Method in brief: as §1

HCC1143 [14] = assay: as above; conditions: 1 nM; incubation time: 72 h
Method in brief: as §1

Hs578T = assay: as above; conditions: 1 nM; incubation time: 72 h
Method in brief: as §1

DU-4475 [15] = assay: as above; conditions: 1 nM; incubation time: 72 h
Method in brief: as §1

SK-BR-3 [16] = assay: as above; conditions: 1 nM; incubation time: 72 h
Method in brief: as §1

CO[C@@H](C(=O)N1Cc2[nH]nc(NC(=O)c3ccc(N4CCN(C)CC4)cc3)c2C1)c1ccccc1 [Danusertib]
normalised viability [%]
Conditions | 3 nM | 10 nM | 30 nM | 100 nM | 1000 nM | 10000 nM
BT-474 | – | 105 | – | – | 88.3 | 96.5
BT-549 | – | 97.9 | – | – | 64.3 | 16.2
CAL-51 [1] | 116 | – | 116 | 74.3 | – | –
CAL-85-1 | 85.8 | – | 82.8 | 76.2 | – | –
CAL-120 [3] | – | 80.7 | – | – | 46 | 8.24
CAL-148 | 92.5 | – | 85.5 | 29.7 | – | –
DU-4475 [7] | 89.8 | – | 88.2 | 70.6 | – | –
HCC1143 [6] | – | 78.2 | – | – | 61.8 | 31.3
HCC1599 | – | 98.4 | – | – | 74.7 | 73.1
HCC1937 | – | 99.8 | – | – | 41.7 | 41
HDQ-P1 [4] | 89.9 | – | 90.7 | 72.4 | – | –
MDA-MB-231 [2] | – | 87.9 | – | – | 56.7 | 19.2
MDA-MB-436 | – | 89.7 | – | – | 72 | 60.9
MDA-MB-453 | 101 | – | 62.1 | 47.9 | – | –
MDA-MB-468 | – | 107 | – | – | 36.2 | 48.1
MFM-223 [5] | – | 71.3 | – | – | 36.9 | 55.4
SK-BR-3 [8] | – | 81 | – | – | 73.5 | 77

Conditions | normalised viability [%]
CAL-51 [9] | 116
CAL-120 [11] | 81
DU-4475 [15] | 107
HCC1143 [14] | 99.3
HDQ-P1 [12] | 110
Hs578T | 96.6
MDA-MB-231 [10] | 101
MFM-223 [13] | 53.6
SK-BR-3 [16] | 79.4
